From US8163724B2, “Glucocorticosteroids, processes for their preparation, pharmaceutical compositions containing them and their use in therapy” (AstraZeneca AB, priority 2007, dated 2012)

The molecules below were run against T1, recombinant human GR (Homo sapiens, UniProt P04150) (assay: Human Glucocorticoid Receptor (GR) Assay (fluorescence polarization, Panvera/Invitrogen kit)). Conditions: fluorescence polarization; GS Red tracer; 2 hours at room temperature; 100% control 10 μM Dexamethasone; read-out: Inhibition of GR binding, IC50.
T1 construct: purchased Panvera/Invitrogen P2812 (kit P2893)
T1 sequence (P04150 1-777): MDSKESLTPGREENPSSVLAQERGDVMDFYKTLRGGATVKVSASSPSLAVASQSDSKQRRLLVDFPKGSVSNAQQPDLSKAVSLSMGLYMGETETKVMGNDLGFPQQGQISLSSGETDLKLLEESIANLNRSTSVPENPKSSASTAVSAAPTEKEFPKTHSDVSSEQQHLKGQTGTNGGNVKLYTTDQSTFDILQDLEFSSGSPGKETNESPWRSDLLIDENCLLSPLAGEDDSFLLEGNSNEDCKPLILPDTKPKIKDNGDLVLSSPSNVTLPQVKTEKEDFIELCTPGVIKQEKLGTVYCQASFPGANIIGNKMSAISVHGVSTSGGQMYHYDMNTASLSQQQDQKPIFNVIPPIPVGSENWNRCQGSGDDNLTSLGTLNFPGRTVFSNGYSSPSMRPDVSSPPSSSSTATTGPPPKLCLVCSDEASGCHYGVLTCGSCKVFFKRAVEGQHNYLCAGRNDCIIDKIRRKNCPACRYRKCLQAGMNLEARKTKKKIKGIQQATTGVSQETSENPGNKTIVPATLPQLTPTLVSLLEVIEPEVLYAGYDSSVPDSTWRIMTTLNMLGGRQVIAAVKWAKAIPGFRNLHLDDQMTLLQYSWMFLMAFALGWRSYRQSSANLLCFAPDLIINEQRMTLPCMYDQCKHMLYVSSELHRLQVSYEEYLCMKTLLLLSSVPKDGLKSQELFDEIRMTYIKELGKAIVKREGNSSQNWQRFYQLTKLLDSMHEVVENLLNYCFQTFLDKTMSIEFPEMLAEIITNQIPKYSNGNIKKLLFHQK
Assay type: binding
In short: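 Fluorescence polarization competition with recombinant GR and GS Red fluorescent ligand plus stabilizing peptide and DTT in potassium phosphate/sodium molybdate/EDTA buffer with DMSO. Incubated 2 hours at room temperature in the dark; 0% control DMSO, 100% control 10 μM dexamethasone.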

Going from C[C@]12Cc3cnn(-c4ccc(F)c(CO)c4)c3C=C1CC[C@@H]1[C@@H]2[C@@H](O)C[C@@]2(C)[C@H]1CC[C@]2(OC(=O)C1CC1)C(=O)OCC#N [Example 145, Cyanomethyl(1R,3aS,3bS,10aR,10bS,11S,12aS)-1-[(cyclopropylcarbonyl)oxy]-7-[4-fluoro-3-(hydroxymethyl)phenyl]-11-hydroxy-10a,12a-dimethyl-1,2,3,3a,3b,4,5,7,10,10a,10b,11,12,12a-tetradecahydrocyclopenta[5,6]naphtho[1,2-f]indazole-1-carboxylate] to C[C@]12Cc3cnn(-c4ccc(F)nc4)c3C=C1CC[C@@H]1[C@@H]2[C@@H](O)C[C@@]2(C)[C@H]1CC[C@]2(OC(=O)C1CC1)C(=O)SCC#N [Example 152, (1R,3aS,3bS,10aR,10bS,11S,12aS)-1-{[(Cyanomethyl)sulfanyl]carbonyl}-7-(6-fluoropyridin-3-yl)-11-hydroxy-10a,12a-dimethyl-1,2,3,3a,3b,4,5,7,10,10a,10b,11,12,12a-tetradecahydrocyclopenta[5,6]naphtho[1,2-f]indazol-1-yl cyclopropanecarboxylate], the IC50 rises from 3.2 nM to 7 nM (2.2-fold).

First: C[C@]12Cc3cnn(-c4ccc(F)cc4)c3C=C1CC[C@@H]1[C@@H]2[C@@H](O)C[C@@]2(C)[C@H]1CC[C@]2(OC(=O)C1(C#N)CC1)C(=O)SCC#N [Example 146, (1R,3aS,3bS,10aR,10bS,11S,12aS)-1-{[(Cyanomethyl)sulfanyl]carbonyl}-7-(4-fluorophenyl)-11-hydroxy-10a,12a-dimethyl-1,2,3,3a,3b,4,5,7,10,10a,10b,11,12,12a-tetradecahydrocyclopenta[5,6]naphtho[1,2-f]indazol-1-yl 1-cyanocyclopropane Carboxylate]
Second: COCC(=O)O[C@]1(C(=O)SCC#N)CC[C@H]2[C@@H]3CCC4=Cc5c(cnn5-c5ccc(F)nc5)C[C@]4(C)[C@H]3[C@@H](O)C[C@@]21C [Example 156, (1R,3aS,3bS,10aR,10bS,11S,12aS)-1-{[(Cyanomethyl)sulfanyl]carbonyl}-7-(6-fluoropyridin-3-yl)-11-hydroxy-10a,12a-dimethyl-1,2,3,3a,3b,4,5,7,10,10a,10b,11,12,12a-tetradecahydrocyclopenta[5,6]naphtho[1,2-f]indazol-1-yl methoxyacetate]
The IC50 of the first is 2.6-fold higher: 3.4 nM for the first, 1.3 nM for the second.

First: C[C@]12Cc3cnn(-c4ccccn4)c3C=C1CC[C@@H]1[C@@H]2[C@@H](O)C[C@@]2(C)[C@H]1CC[C@]2(OC(=O)C1CC1)C(=O)SCF [Example 149, (1R,3aS,3bS,10aR,10bS,11S,12aS)-1-{[(Fluoromethyl)sulfanyl]carbonyl}-11-hydroxy-10a,12a-dimethyl-7-pyridin-2-yl-1,2,3,3a,3b,4,5,7,10,10a,10b,11,12,12a-tetradecahydrocyclopenta[5,6]naphtho[1,2-f]indazol-1-yl cyclopropane Carboxylate]
Second: C[C@]12Cc3cnn(-c4ccc(Cl)cn4)c3C=C1CC[C@@H]1[C@@H]2[C@@H](O)C[C@@]2(C)[C@H]1CC[C@]2(OC(=O)C1CC1)C(=O)SCF [Example 150, (1R,3aS,3bS,10aR,10bS,11S,12aS)-7-(5-Chloropyridin-2-yl)-1-{[(fluoromethyl)sulfanyl]carbonyl}-11-hydroxy-10a,12a-dimethyl-1,2,3,3a,3b,4,5,7,10,10a,10b,11,12,12a-tetradecahydrocyclopenta[5,6]naphtho[1,2-f]indazol-1-yl cyclopropane Carboxylate]
The IC50 of the first is 4.2-fold lower: 5 nM for the first, 21 nM for the second. The first is the more potent here.

Going from CSC(=O)[C@@]1(OC(=O)C2CC2)CC[C@H]2[C@@H]3CCC4=Cc5c(cnn5-c5ccc(F)nc5)C[C@]4(C)[C@H]3[C@@H](O)C[C@@]21C [Example 153, (1R,3aS,3bS,10aR,10bS,11S,12aS)-7-(6-Fluoropyridin-3-yl)-11-hydroxy-10a,12a-dimethyl-1-[(methylsulfanyl)carbonyl]-1,2,3,3a,3b,4,5,7,10,10a,10b,11,12,12a-tetradecahydrocyclopenta[5,6]naphtho[1,2-f]indazol-1-yl cyclopropanecarboxylate] to COCSC(=O)[C@@]1(OC(=O)C2CC2)CC[C@H]2[C@@H]3CCC4=Cc5c(cnn5-c5ccc(F)nc5)C[C@]4(C)[C@H]3[C@@H](O)C[C@@]21C [Example 154, (1R,3aS,3bS,10aR,10bS,11S,12aS)-7-(6-Fluoropyridin-3-yl)-11-hydroxy-1-{[(methoxymethyl)sulfanyl]carbonyl}-10a,12a-dimethyl-1,2,3,3a,3b,4,5,7,10,10a,10b,11,12,12a-tetradecahydrocyclopenta[5,6]naphtho[1,2-f]indazol-1-yl cyclopropanecarboxylate], the IC50 rises from 2.4 nM to 5.9 nM (2.5-fold). The first is the more potent here.

First: C[C@]12Cc3cnn(-c4ccc(F)nc4)c3C=C1CC[C@@H]1[C@@H]2[C@@H](O)C[C@@]2(C)[C@H]1CC[C@]2(OC(=O)C1CC1)C(=O)SCCO [Example 155, (1R,3aS,3bS,10aR,10bS,11S,12aS)-7-(6-Fluoropyridin-3-yl)-11-hydroxy-1-{[(2-hydroxyethyl)sulfanyl]carbonyl}-10a,12a-dimethyl-1,2,3,3a,3b,4,5,7,10,10a,10b,11,12,12a-tetradecahydrocyclopenta[5,6]naphtho[1,2-f]indazol-1-yl cyclopropanecarboxylate]
Second: COCC(=O)O[C@]1(C(=O)SCCO)CC[C@H]2[C@@H]3CCC4=Cc5c(cnn5-c5ccc(F)nc5)C[C@]4(C)[C@H]3[C@@H](O)C[C@@]21C [Example 159, (1R,3aS,3bS,10aR,10bS,11S,12aS)-7-(6-Fluoropyridin-3-yl)-11-hydroxy-1-{[(2-hydroxyethyl)sulfanyl]carbonyl}-10a,12a-dimethyl-1,2,3,3a,3b,4,5,7,10,10b,11,12,12a-tetradecahydrocyclopenta[5,6]naphtho[1,2-f]indazol-1-yl methoxyacetate]
The IC50 of the first is 1.9-fold lower: 1.9 nM for the first, 3.6 nM for the second.

Going from COCC(=O)O[C@]1(C(=O)SC)CC[C@H]2[C@@H]3CCC4=Cc5c(cnn5-c5ccc(F)nc5)C[C@]4(C)[C@H]3[C@@H](O)C[C@@]21C [Example 157, (1R,3aS,3bS,10aR,10bS,11S,12aS)-7-(6-Fluoropyridin-3-yl)-11-hydroxy-10a,12a-dimethyl-1-[(methylsulfanyl)carbonyl]-1,2,3,3a,3b,4,5,7,10,10a,10b,11,12,12a-tetradecahydrocyclopenta[5,6]naphtho[1,2-f]indazol-1-yl Methoxyacetate] to COCSC(=O)[C@@]1(OC(=O)COC)CC[C@H]2[C@@H]3CCC4=Cc5c(cnn5-c5ccc(F)nc5)C[C@]4(C)[C@H]3[C@@H](O)C[C@@]21C [Example 158, (1R,3aS,3bS,10aR,10bS,11S,12aS)-7-(6-Fluoropyridin-3-yl)-11-hydroxy-1-{[(methoxymethyl)sulfanyl]carbonyl}-10a,12a-dimethyl-1,2,3,3a,3b,4,5,7,10,10a,10b,11,12,12a-tetradecahydrocyclopenta[5,6]naphtho[1,2-f]indazol-1-yl methoxyacetate], the IC50 rises from 1.1 nM to 2.4 nM (2.2-fold).

C[C@]12Cc3cnn(-c4ccc(F)nc4)c3C=C1CC[C@@H]1[C@@H]2[C@@H](O)C[C@@]2(C)[C@H]1CC[C@]2(OC(=O)c1cocn1)C(=O)SCC#N [Example 160, (1R,3aS,3bS,10aR,10bS,11S,12aS)-1-{[(Cyanomethyl)sulfanyl]carbonyl}-7-(6-fluoropyridin-3-yl)-11-hydroxy-10a,12a-dimethyl-1,2,3,3a,3b,4,5,7,10,10a,10b,11,12,12a-tetradecahydrocyclopenta[5,6]naphtho[1,2-f]indazol-1-yl 1,3-oxazole-4-carboxylate] and C[C@]12Cc3cnn(-c4ccc(F)nc4)c3C=C1CC[C@@H]1[C@@H]2[C@@H](O)C[C@@]2(C)[C@H]1CC[C@]2(OC(=O)c1cocn1)C(=O)SCCO [Example 162, (1R,3aS,3bS,10aR,10bS,11S,12aS)-7-(6-Fluoropyridin-3-yl)-11-hydroxy-1-{[(2-hydroxyethyl)sulfanyl]carbonyl}-10a,12a-dimethyl-1,2,3,3a,3b,4,5,7,10,10a,10b,11,12,12a-tetradecahydrocyclopenta[5,6]naphtho[1,2-f]indazol-1-yl 1,3-oxazole-4-carboxylate] are within 1.5-fold of each other in IC50: 2.1 nM for the first, 1.8 nM for the second.

CSC(=O)[C@@]1(OC(=O)c2cocn2)CC[C@H]2[C@@H]3CCC4=Cc5c(cnn5-c5ccc(F)nc5)C[C@]4(C)[C@H]3[C@@H](O)C[C@@]21C [Example 161, (1R,3aS,3bS,10aR,10bS,11S,12aS)-7-(6-Fluoropyridin-3-yl)-11-hydroxy-10a,12a-dimethyl-1-[(methylsulfanyl)carbonyl]-1,2,3,3a,3b,4,5,7,10,10a,10b,11,12,12a-tetradecahydrocyclopenta[5,6]naphtho[1,2-f]indazol-1-yl 1,3-oxazole-4-carboxylate] showed an IC50 of 1.3 nM.
